Measured values taken from patent US20240174690A1, “ANNULATED 2-AMINO-3-CYANO THIOPHENES AND DERIVATIVES FOR THE TREATMENT OF CANCER” (BOEHRINGER INGELHEIM INTERNATIONAL GMBH, priority 2021, published 2024).
≈ marks a conversion by molar mass, not a printed value. Where two headings read alike, the source gives them in different places.

Key:
[1] = tested on: KRAS G12C-dependent Ba/F3 cells; assay: Ba/F3 proliferation assay, KRAS G12C; type: cell-based; details: Mus musculus, BaF3, 72 h, AlamarBlue
Outline: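 Ba/F3 cells retrovirally transduced with KRAS G12 mutants, puromycin-selected and grown without IL-3, so proliferation depends on the mutant KRAS. Compounds tested in technical duplicates; viability read by AlamarBlue fluorescence, with curve fitting for potency.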

SAS cells = assay: SAS CTG proliferation assay (120 h) (HNSCC, wt amplified); type: cell-based
Outline: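 SAS cells plated at 300 per well in DMEM:F12 with 10% FCS and left overnight, then given compounds acoustically. After 120 h exposure, viability read by CellTiter-Glo as percent of DMSO control. IC50 from four-parameter non-linear regression.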

[2] = Metabolic (microsomal) stability assay, human liver microsomes (HLM); type: in vitro ADME; details: predicted clearance as percent of liver blood flow, 1 μM
Outline: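 LC-MS/MS tracked parent disappearance at 0, 5, 15, 30 and 60 min in NADPH-initiated incubations with 1 mg/mL human microsomal protein and 1 μM compound at 37°C, pH 7.5. First-order fits gave intrinsic clearance, which was scaled up and reported as % QH. NADPH-free controls were also run.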

[3] = Solubility measurement (DMSO solution method), McIlvaine buffer pH 4.5 or 6.8; type: physicochemical; details: aqueous buffer, kinetic from dmso stock, DMSO stock diluted to 250 μM, 24 h shaking at ambient temperature
Outline: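 DMSO stock diluted into McIlvaine buffer, pH 4.5 or 6.8, to 250 µM final, shaken 24 h at ambient temperature. Precipitate removed by filtration; filtrate quantified by LC-UV against a fully dissolved reference in acetonitrile/water 1:1.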

NCI-H358 cells = assay: NCI-H358 CTG proliferation assay (120 h) (NSCLC, G12C); type: cell-based, human; details: Homo sapiens
Outline: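 NCI-H358 cells (KRAS G12C) were seeded at 2000/well (assay 1) or 200/well (assay 2) in RPMI-1640 + 10% FCS and dosed with a logarithmic series, DMSO-normalized. After 120 h, viability was read by CellTiter-Glo luminescence as percent of DMSO control, with a T0 read at dosing. IC50 came from a four-parameter fit.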

[4] = McIlvaine buffer pH 4.5, read-out: solubility pH 4.5
[5] = McIlvaine buffer pH 6.8, read-out: solubility pH 6.8
[6] = assay 2, CTG, read-out: H358 (assay 2) IC50

SMILES | IC50 [1] [nM] | IC50 (SAS cells) [nM] | HLM QH [2] [%] | solubility at 24 h [3, 4] [µg/mL] | solubility at 24 h [3, 5] [µg/mL] | IC50 (NCI-H358 cells; [6]) [nM] | IC50 (NCI-H358 cells; assay 1, CTG, read-out: H358 (assay 1) IC50) [nM]
COCCNC(=O)c1ccn(-c2cc(O[C@@H](C)[C@@H]3CCCN3C)nc(-c3onc4c3CCC[C@@]43CCCc4sc(N)c(C#N)c43)n2)n1 [I-58] | 4 | 45 | 34 | > 128 | 94 (≈ 143 µM) | 5 | 
C[C@H](Oc1cc(N2CCNC3(CCC3)C2)nc(-c2noc3c2CCC[C@@]32CCCc3sc(N)c(C#N)c32)n1)[C@@H]1CCCN1C [II-40] | 381 | 979 | <24 | > 140 | > 133 | 1300 | 
[2H]C([2H])([2H])N1C[C@H](F)C[C@H]1[C@H](C)Oc1cc(N2CCN(C)C3(CC3)C2)nc(-c2noc3c2CCC[C@@]32CCCc3sc(N)c(C#N)c32)n1 [II-209] | 271 | 737 | 40 | > 150 | < 1 | 136 | 
C[C@H](Oc1cc(N2CCNC3(COC3)C2)nc(-c2onc3c2CCC[C@@]32CCCc3sc(N)c(C#N)c32)n1)[C@@H]1CCCN1C [I-4] | 69 | 395 | <24 | > 148 | > 140 | 740 | 
C[C@H](Oc1cc(-n2ccc(C(=O)N[C@@H]3CCOC3)n2)nc(-c2onc3c2CCC[C@@]32CCCc3sc(N)c(C#N)c32)n1)[C@@H]1CCCN1C [I-56] | 3 | 25 | 25 | 108 (≈ 161 µM) | 97 (≈ 145 µM) | 2 | 
C[C@H](Oc1cc(N2CCNC3(COC3)C2)nc(-c2noc3c2CCC[C@@]32CCCc3sc(N)c(C#N)c32)n1)[C@@H]1CCCN1C [II-31] | 69 | 208 | 42 | > 151 | > 133 | 143 | 
CO[C@H]1CCN(C)[C@@H]1[C@H](C)Oc1cc(-n2ccc(CC(=O)NC(C)C)n2)nc(-c2onc3c2CCC[C@@]32CCCc3sc(N)c(C#N)c32)n1 [I-48] | 4 | 13 | 51 | > 161 | 7 (≈ 10.2 µM) | 4 | 
C[C@H](NC(=O)c1ccn(-c2cc(O[C@@H](C)[C@@H]3CCCN3C)nc(-c3onc4c3CCC[C@@]43CCCc4sc(N)c(C#N)c43)n2)n1)c1ccccn1 [I-59] | 2 | 15 | <24 | > 150 | 15 (≈ 21.3 µM) | 2 | 
C[C@H](Oc1cc(N2CCN(C)C3(COC3)C2)nc(-c2onc3c2CCC[C@@]32CCCc3sc(N)c(C#N)c32)n1)[C@@H]1C[C@@H](F)CN1C [I-37] | 1180 | 412 | 51 | > 149 | 17 (≈ 26.2 µM) | 3890 | 
C[C@H](Oc1cc(-c2cnsc2)nc(-c2onc3c2CCC[C@@]32CCCc3sc(N)c(C#N)c32)n1)[C@@H]1CCCN1C [I-27] | 18 | 109 | <24 | 67 (≈ 117 µM) | 1 (≈ 1.74 µM) | 121 | 
C[C@H](Oc1cc(-c2ccn(C[C@@H]3CCCO3)n2)nc(-c2noc3c2CCC[C@@]32CCCc3sc(N)c(C#N)c32)n1)[C@@H]1CCCN1C [II-43] | 37 | 24 | <24 | 121 (≈ 189 µM) | 9 (≈ 14 µM) | 117 | 
C[C@H](Oc1cc(-n2ccc(C(=O)NC3(C)COC3)n2)nc(-c2noc3c2CCC[C@@]32CCCc3sc(N)c(C#N)c32)n1)[C@@H]1CCCN1C [II-26] | 5 | 5 | <24 | > 194 | 62 (≈ 92.6 µM) | 4 | 
C[C@H](Oc1cc(-c2ccn(C[C@@H](C)O)n2)nc(-c2onc3c2CCC[C@@]32CCCc3sc(N)c(C#N)c32)n1)[C@@H]1CCCN1C [I-30] | 9 | 50 | <24 | > 150 | > 141 | 205 | 
CO[C@H]1CCN(C)[C@@H]1[C@H](C)Oc1cc(-n2ccc(C(=O)N[C@@H]3CCOC3)n2)nc(-c2onc3c2CCC[C@@]32CCCc3sc(N)c(C#N)c32)n1 [I-53] | 2 | 13 | 56 | > 152 | 5 (≈ 7.14 µM) | 1 | 
C[C@H](Oc1cc(C2CCCO2)nc(-c2noc3c2CCC[C@@]32CCCc3sc(N)c(C#N)c32)n1)[C@@H]1CCCN1C (stereo partly shown) [II-44] | 28 | 6000 | 31 | > 115 | 104 (≈ 185 µM) | 398 | 
C[C@H](Oc1cc(-c2ccn(C3COC3)n2)nc(-c2onc3c2CCC[C@@]32CCCc3sc(N)c(C#N)c32)n1)[C@@H]1CCCN1C [I-34] | 7 | 185 | <24 | > 135 | 92 (≈ 150 µM) | 76 | 
C[C@H](Oc1cc(-c2ccn(C)n2)nc(-c2noc3c2CCC[C@@]32CCCc3sc(N)c(C#N)c32)n1)[C@@H]1C[C@@H](F)CN1C [II-27] | 18 | 151 | 44 | 108 (≈ 183 µM) | < 1 | 44 | 112
C[C@H](Oc1cc(N2C[C@H](C)NC3(CC3)C2)nc(-c2noc3c2CCC[C@@]32CCCc3sc(N)c(C#N)c32)n1)[C@@H]1C[C@@H](F)CN1C [II-18] | 429 | 293 | 58 | > 146 | 8 (≈ 12.6 µM) | 160 | 
C[C@H](Oc1cc(-n2ccc(C(=O)N(C)C3COC3)n2)nc(-c2onc3c2CCC[C@@]32CCCc3sc(N)c(C#N)c32)n1)[C@@H]1CCCN1C [I-60] | 5 | 40 | <24 | > 158 | > 161 | 4 | 
C[C@H](Oc1cc(-c2ccc(N)nc2)nc(-c2onc3c2CCC[C@@]32CCCc3sc(N)c(C#N)c32)n1)[C@@H]1CCCN1C [I-25] | 92 | 285 | <24 | > 170 | 44 (≈ 75.5 µM) | 188 | 
C[C@H](Oc1cc(N2CCN(C)C3(CC3)C2)nc(-c2onc3c2CCC[C@@]32CCCc3sc(N)c(C#N)c32)n1)[C@@H]1C[C@@H](F)CN1C [I-39] | 613 | 1200 | 39 | > 147 | < 1 | 1450 | 
